Patent US8017350B2, “Glimepiride- and insulin-induced glycosylphosphatidylinositol-specific phospholipase C regulation” (Sanofi-Aventis Deutschland GmbH, priority 2004, dated 2011)
Read-outs that look alike come from different tables or passages of the source.

Legend:
stability of compound 3 = assay type: physicochemical
[1] = test system: trypanosomal GPI-PLC (T. brucei); details: literature; cited from earlier work
[2] = test system: GPI-proteins 5′-Nuc, Gce1 and aP in isolated rat adipocytes; test: localization of lipolytically cleaved and uncleaved GPI-proteins at hcDIGs, IcDIGs and total plasma membranes (TX-114 partitioning); assay type: cell-based; details: GPI-2350 50 μM, insulin 10 nM, glimepiride 20 μM; for 5′-Nuc amphiph IcDIGs / 5′-Nuc hydroph. IcDIGs / 5′-Nuc hydroph. hcDIGs / Gce1 amphiph IcDIGs / Gce1 hydroph. IcDIGs / Gce1 hydroph. hcDIGs / aP amphiph IcDIGs / aP hydroph. IcDIGs / aP hydroph. hcDIGs: amphiphilic version in hcDIGs of basal adipocytes set at 100; for 5′-Nuc hydroph. PM / Gce1 hydroph. PM / aP hydroph. PM: amphiphilic version in total plasma membranes of basal adipocytes set at 100; for 5′-Nuc amphiph hcDIGs / Gce1 amphiph hcDIGs / aP amphiph hcDIGs: basal set at 100
[3] = test system: pp59Lyn and Gce1 interaction with caveolin-1 in rat adipocytes; test: dissociation of signaling proteins from caveolin (caveolin-1 immunoprecipitates of hcDIGs); assay type: cell-based; details: solubilized hcDIGs; FIG. 6
Experimental: Solubilized DIGs (see above, 5-20 μg protein) were precleared by incubation with protein A/G-Sepharose and subsequent centrifugation (10,000×g, 5 min). The supernatant was incubated with anti-caveolin-1 antibodies (1:1000) preadsorbed on protein A/G-Sepharose in 1 ml of 10 mM Tris/HCl (pH 7.4), 150 mM NaCl, 1% TX-100 for 1 h at 4° C. The immune complexes were washed twice with the same buffer and then twice with buffer lacking TX-100 and finally subjected to SDS-PAGE performed in the absence of β-mercaptoethanol. The recovery of immunoprecipitated caveolin was normalized by homologous immunoblotting with anti-caveolin antibodies of the same blot following stripping of the membrane.
Polypeptides separated by SDS-PAGE were transferred to polyvinylidene difluoride membranes using the semidry procedure as described in “Müller, G. et al., (2001) Mol. Cell. Biol. 21: 4553-4567”. Washed membranes were incubated with anti-caveolin-1 (1:2000), anti-pp59^Lyn (1:1250), anti-aP (1:500), anti-5′-Nuc (1:750) and anti-IRS-1 (1:2000) antibodies for 4 h at 15° C. Washed membranes were incubated with horseradish peroxidase-coupled secondary goat anti-mouse (1:2000) or goat anti-rabbit IgG (1:4000) antibodies. Labeled proteins were visualized by enhanced chemiluminescence.
FIG. 6: Effect of GPI-2350 on the glimepiride/insulin-induced dissociation of signaling proteins from caveolin. Isolated rat adipocytes were treated (5 min, 37° C.) without or with GPI-2350 (left panels, 50 μM; right panels, increasing conc.) and then incubated (120 min, 37° C.) in the absence or presence of insulin (10 nM) or glimepiride (20 μM). hcDIGs were prepared from the adipocytes and then solubilized. Caveolin-1 immunoprecipitates prepared from the solubilized hcDIGs were assayed for the presence of pp59^Lyn and Gce1 by immunoblotting and photoaffinity-labeling, respectively. […]

[4] = cited from earlier work
isolated rat adipocytes = test: isoproterenol-induced lipolysis measured as release of NBD-FA; assay type: cell-based
Experimental: Electroporation was performed as described in “Müller, G. et al., (2000) Mol. Cell. Biol. 20: 4708-4723”. Lipolysis was determined as release of glycerol or fluorescent NBD-FA from prelabeled and isoproterenol-stimulated adipocytes as described in “Müller, G. et al., (2003) Biochimie 85: 1245-1256”. Gce1 was detected by photolabeling of solubilized plasma membranes or hc/lcDIGs (10-50 μg protein) with 8-N3—[^32P]cAMP and subsequent phosphorimaging as described in “Müller, G. et al., (1994) Biochemistry 33: 12149-12159”. 5′-Nuc, aP and AChE activities were measured according to “Eliakim, R. et al., (1990) Biochim. Biophys. Acta 1355: 293-302”. Protein was determined using the BCA protein determination kit from Pierce (Rockford, Ill.) and BSA as calibration standard. SDS-PAGE was performed using precast gels (Novex, San Diego, Calif.; 10% Bis-Tris resolving gel, morpholinopropanesulfonic acid-SDS running buffer). Lumiimages were evaluated on a LumiImager using LumiImager software (Roche Diagnostics). Phosphor- and fluorescence images were processed and quantified using the Storm 860 PhosphorImager system (Molecular Dynamics, Gelsenkirchen, Germany). Figures were constructed using the ADOBE PHOTOSHOP software (Adobe Systems, Mountain View, Calif.).
FIG. 9: Isolated rat adipocytes were labeled with 0.5 mM NBD-FA (60 min, 37° C.), washed and then incubated (5 min, 37° C.) in the absence (Panels B, D) or presence of GPI-2350 (50 μM; Panels A, C) prior to challenge with increasing concentrations of glimepiride (Panels A, B) or insulin (Panels C, D). After further incubation (120 min, 37° C.) without or with isoproterenol (1 μM) as indicated, total cell suspensions were extracted with chloroform/heptane/methanol/0.1 N HCl (3/3/2/1, by vol.). The organic phases were analyzed by thin layer chromatography (diethylether/petrolether/acetic acid 78/22/1, by vol.) and fluorescence imaging in parallel with NBD-FA as marker. A typical experiment with 2 independent labelings and incubations is shown repeated once with similar results. TAG, triacylglycerol.

Row | Compound | inhibition in words [1] | 5′-Nuc amphiph IcDIGs [2] [arb. units] | 5′-Nuc hydroph. IcDIGs [2] [arb. units] | 5′-Nuc hydroph. hcDIGs [2] [arb. units] | Gce1 amphiph IcDIGs [2] [arb. units] | Gce1 hydroph. IcDIGs [2] [arb. units] | Gce1 hydroph. hcDIGs [2] [arb. units] | aP amphiph IcDIGs [2] [arb. units] | aP hydroph. IcDIGs [2] [arb. units] | aP hydroph. hcDIGs [2] [arb. units] | 5′-Nuc hydroph. PM [2] [arb. units] | Gce1 hydroph. PM [2] [arb. units] | aP hydroph. PM [2] [arb. units] | 5′-Nuc amphiph hcDIGs [2] [arb. units] | Gce1 amphiph hcDIGs [2] [arb. units] | aP amphiph hcDIGs [2] [arb. units] | induced maximal losses of pp59Lyn and Gce1 from caveolin-1 immunoprecipitates [3] | further results
1 | CCCCCCCCCCCCP1(=O)OC2C(O)C(O)C(O)C(O)C2O1 (racemic) [GPI-2350, myo-inositol-1,2-cyclo-dodecylphosphonic acid] | – | – | – | – | – | – | – | – | – | – | – | – | – | – | – | – | – | stability as dried amorphous solid (stability of compound 3; 4° C.): dried amorphous solid for years; stability in methanol (stability of compound 3; methanol): stable in methanol for days
2 | CCCCCCCCCCCCP(=O)(O)O[C@@H]1[C@H](O)[C@H](O)[C@@H](O)[C@H](O)[C@H]1O[C@H]1O[C@H](CO)[C@@H](O)[C@H](O)[C@H]1N [GMI-1-dodecylphosphonate] | considerably more inhibitory than the corresponding hexyl derivative | – | – | – | – | – | – | – | – | – | – | – | – | – | – | – | – | –
3 | CCC1=C(C)CN(C(=O)NCCc2ccc(S(=O)(=O)NC(=O)N[C@H]3CC[C@H](C)CC3)cc2)C1=O [Glimepiride, glimepiride] | – | 59 ± 9 | 9 ± 3 | 48 ± 10 | 79 ± 15 | 12 ± 5 | 69 ± 9 | 49 ± 8 | 10 ± 2 | 88 ± 19 | 19 ± 5 | 40 ± 11 | 54 ± 12 | 35 ± 10 | 25 ± 10 | 10 ± 3 | 75-85% | time of greatest blood glucose lowering effects after the dose ([4]; human, in vivo): ≤ 4 h; hypoglycaemia, patients ([4]; receiving concomitant insulin for 6 months): ≤ 50%; IC50 (isolated rat adipocytes; Rattus norvegicus, Adipocyte, isoproterenol-induced adipocytes, FIG. 9, read-out: IC50 for reduction of NBD-FA release): 3000 nM; reduction of NBD-FA release in the presence of inhibitor (isolated rat adipocytes; in the presence of 50 μM glimepiride (so in the source), Panels A, B): completely abrogated
4 | N[C@H]1[C@@H](O[C@@H]2[C@@H](O)[C@H](O)[C@@H](O)[C@H]3OP(=O)(O)O[C@H]32)O[C@H](CO)[C@@H](O)[C@@H]1O [glucosamine (α1→6)-inositol-1,2-cyclic phosphate] | better inhibitor than GMI-1-phosphate | – | – | – | – | – | – | – | – | – | – | – | – | – | – | – | – | –
5 | CCCCCCCCCCCCOP(=O)(O)OC1C(O)C(O)C(O)C(O)C1O (stereo not shown) [myo-inositol-1-O-dodecylphosphate] | inhibit the trypanosomal GPI-PLC | – | – | – | – | – | – | – | – | – | – | – | – | – | – | – | – | –
6 | Insulin: Human recombinant insulin | – | 28 ± 4 | 7 ± 2 | 34 ± 8 | 35 ± 9 | 19 ± 5 | 58 ± 12 | 27 ± 5 | 4 ± 2 | 69 ± 8 | 14 ± 5 | 29 ± 7 | 31 ± 6 | 81 ± 17 | 64 ± 8 | 44 ± 7 | 35-45% | IC50 (isolated rat adipocytes; absence of GPI-2350, read-out: apparent IC50 for inhibition of NBD-FA release): 100 nM; IC50 (isolated rat adipocytes; presence of GPI-2350 (50 μM), read-out: apparent IC50 for inhibition of NBD-FA release): 300 nM
